Data set [1] is described as follows: Body weight change of MOLM-13 tumor-bearing NOD-SCID mice under drug administration. The format is in vivo, mouse. The following applies: oral. The protocol:
(§1) Human acute myeloid leukemia cell line MOLM-13 cells having a FLT3-ITD mutation and wild-type TP53 were suspended to 5×10^7 cells/mL using phosphate-buffered saline. 0.1 mL of the prepared cell suspension was subcutaneously transplanted to each NOD-SCID mouse (male, 5 to 7 weeks old). On 6 days after the tumor inoculation, after confirmation that the average tumor volume exceeded 100 mm^3, the mice were randomized (N=6/group) on the basis of their tumor volume values. […] The administration was performed once a day for 5 consecutive days (6 to 10 days after the tumor inoculation) from the date of randomization (6 days after the tumor inoculation), and after a 2-day drug holiday, performed once a day for 4 consecutive days (13 to 16 days after the tumor inoculation). The length (mm) and width (mm) of tumor were measured over time using an electronic digital caliper. Tumor growth inhibition % (TGI %) on the date of assessment (17 days after the tumor inoculation) calculated according to calculation formula (4) shown below was used in evaluation. Also, the body weights were measured over time using an automatic balance for small animals, and body weight change % was calculated according to calculation formula (5) shown below to assess the influence of drug administration on the body weights. In addition, the results of the last body weight measurement were used in dose calculation. TGI (%)=(1−A/B)×100 (4)
(§2) *: The tumor volume was calculated according to ½×[Major axis of tumor]×[Minor axis of tumor]×[Minor axis of tumor]. Body weight change (%)=Average body weight change % of the individuals Body weight change % of each individual=[…] (5)
BWn: Body weight on day n
BWs: Body weight on the start day of administration

In data set [2] the test system is human acute myeloid leukemia cell line MOLM-13 cells having a FLT3-ITD mutation and wild-type TP53. Nature of the data set: In vivo effect of combined use on subcutaneously transplanted MOLM-13 tumors in NOD-SCID mice. The note with it: oral; for TGI (%): 17 days after tumor inoculation. The protocol: as §1
A: Average tumor volume of the compound-administered group on the date of assessment (*)
B: Average tumor volume of the untreated control group on the date of assessment (*)
as §2

[3] abbreviates: DS-3032b 25 mg/kg, day 6 after tumor inoculation.
[4] abbreviates: DS-3032b 25 mg/kg, day 8 after tumor inoculation.
[5] abbreviates: DS-3032b 25 mg/kg, day 10 after tumor inoculation.
Where [6] appears, read: DS-3032b 25 mg/kg, day 13 after tumor inoculation.
[7] abbreviates: DS-3032b 25 mg/kg, day 15 after tumor inoculation.
Setting [8] is: DS-3032b 25 mg/kg, day 17 after tumor inoculation.
Where [9] appears, read: DS-3032b 50 mg/kg, day 6 after tumor inoculation.
[10] abbreviates: DS-3032b 50 mg/kg, day 8 after tumor inoculation.
Where [11] appears, read: DS-3032b 50 mg/kg, day 10 after tumor inoculation.
[12] abbreviates: DS-3032b 50 mg/kg, day 13 after tumor inoculation.
Where [13] appears, read: DS-3032b 50 mg/kg, day 15 after tumor inoculation.
Setting [14] is: DS-3032b 50 mg/kg, day 17 after tumor inoculation.

For `CC1(C)CCC2(CC1)N[C@@H](C(=O)N[C@@H]1CC[C@@H](C(N)=O)OC1)[C@H](c1ccnc(Cl)c1F)[C@]21C(=O)Nc2cc(Cl)ccc21.Cc1ccc(S(=O)(=O)O)cc1` [Compound A, (3′R,4′S,5′R)—N-[(3R,6S)-6-carbamoyltetrahydro-2H-pyran-3-yl]-6″-chloro-4′-(2-chloro-3-fluoropyridin-4-yl)-4,4-dimethyl-2″-oxo-1″,2″-dihydrodispiro[cyclohexane-1,2′-pyrrolidine-3′,3″-indole]-5′-carboxamide tosylate], the “Body weight change (%), average” value is 0.0% in data set [1] (setting [3]); 2.1% in data set [1] (setting [4]); 3.1% in data set [1] (setting [5]); 6.4% in data set [1] (setting [6]); 8.0% in data set [1] (setting [7]); 10.6% in data set [1] (setting [8]). Besides, the “Body weight change (%), average” value in data set [1] (setting [9]) stood at 0.0%; in data set [1] (setting [10]) it was 1.5%; in data set [1] (setting [11]), 2.7%; in data set [1] (setting [12]), 5.5%; in data set [1] (setting [13]) it was 6.8%; in data set [1] (setting [14]), 5.8%. Further, the “TGI (%)” value in data set [2] (Compound A 25 mg/kg) came out at 38%; in data set [2] (Compound A 50 mg/kg), 82%. Further, the “Estimated tumor volume (mm^3), average” value is reported as 169 mm^3 in data set [2] (setting [3]); 266 mm^3 in data set [2] (setting [4]); 425 mm^3 in data set [2] (setting [5]); 812 mm^3 in data set [2] (setting [6]); 983 mm^3 in data set [2] (setting [7]); 1661 mm^3 in data set [2] (setting [8]). Moreover, the “Estimated tumor volume (mm^3), average” value in data set [2] (setting [9]) is given as 162 mm^3; in data set [2] (setting [10]) it was 195 mm^3; in data set [2] (setting [11]) it was 210 mm^3; in data set [2] (setting [12]) it was 325 mm^3; in data set [2] (setting [13]), 375 mm^3; in data set [2] (setting [14]), 467 mm^3.
In the case of `CC(C)(C)c1cc(NC(=O)Nc2ccc(-c3cn4c(n3)sc3cc(OCCN5CCOCC5)ccc34)cc2)no1` [Quizartinib, N-(5-tert-butyl-isoxazol-3-yl)-N′-{4-[7-(2-morpholin-4-yl-ethoxy)imidazo[2,1-b][1,3]benzothiazol-2-yl]phenyl}urea, reference compound], the “Body weight change (%), average” value is 0.0% in data set [1] (Quizartinib 0.5 mg/kg, day 6 after tumor inoculation); 4.2% in data set [1] (Quizartinib 0.5 mg/kg, day 8 after tumor inoculation); 4.2% in data set [1] (Quizartinib 0.5 mg/kg, day 10 after tumor inoculation); 8.5% in data set [1] (Quizartinib 0.5 mg/kg, day 13 after tumor inoculation); 9.6% in data set [1] (Quizartinib 0.5 mg/kg, day 15 after tumor inoculation); 10.7% in data set [1] (Quizartinib 0.5 mg/kg, day 17 after tumor inoculation). The “Body weight change (%), average” value in data set [1] (Quizartinib 1 mg/kg, day 6 after tumor inoculation) is given as 0.0%; in data set [1] (Quizartinib 1 mg/kg, day 8 after tumor inoculation) it was 0.2%; in data set [1] (Quizartinib 1 mg/kg, day 10 after tumor inoculation) it was 1.8%; in data set [1] (Quizartinib 1 mg/kg, day 13 after tumor inoculation), 4.6%; in data set [1] (Quizartinib 1 mg/kg, day 15 after tumor inoculation), 5.1%; in data set [1] (Quizartinib 1 mg/kg, day 17 after tumor inoculation), 5.8%.
